# Assay results taken from a melting point compilation (Tetko et al.; mined from patent text by program, amines drawn as free bases though some values may be those of a salt).
row,melting point,Structure (SMILES)
1,56 to 57 °C,C(=C1CCC2(CC1)OCCO2)c1ccc(OCc2ccccc2)cc1
2,180 to 181 °C,CC1(c2ccccc2)C(=O)Nc2ccc(Cl)cc21 (stereo not given)
3,51 to 52 °C,CCOC(=O)c1sc(SC)c(C(=O)CC(C)=O)c1C
4,159 to 160 °C,COC(=O)CCC1(CCC(=O)OC)c2cc(N(c3ccccc3)c3cccc(C)c3)ccc2-c2ccc(N(c3ccccc3)c3cccc(C)c3)cc21
5,179 to 180 °C,COC(=O)c1cc(Cl)ccc1NC(=O)c1cc(OC)c(OC)c(OC)c1
6,142 to 143 °C,O=C1C=C(C(F)(F)F)N(Br)CN1c1ccc(C(F)(F)F)cn1
7,38 to 39 °C,CCOC(=O)C1(C(=O)OCC)SCC(N(C)C)CS1
8,74 to 75.5 °C,CCc1nc(-c2ccc(OCCCn3ccnc3)cc2)no1
9,165 to 166 °C,CC12CCC3c4ccc(O)cc4CC(Sc4ccc(Br)cc4)C3C1CCC2O (stereo not given)
10,274 to 275 °C,COc1cccc2c(NCc3ccccc3C)nc(N)nc12
11,122 °C,CC(CCN1c2cccc3cccc(c23)S1(=O)=O)N1CCN(c2ccc(F)cc2)CC1 (stereo not given)
12,254 to 256 °C,N#Cc1cnc2cc(-c3ccc(CN4CCOCC4)cc3)sc2c1Nc1ccc(Oc2ccccc2)cc1
13,100 to 103 °C,O=[N+]([O-])C1(F)C=C(OCC2CCCSC2)C(Cl)=CC1 (stereo not given)
14,128 to 130 °C,CCOCn1c(Cl)c(Cl)c(C#N)c1-c1ccc(Cl)c(Cl)c1
15,59 to 61 °C,CC(C)Oc1cc([N+](=O)[O-])ccc1-n1cccc1
16,108 to 110 °C,Cc1[nH]c2c(Cl)cc(Nc3cnccc3N)cc2c1C
17,150 to 152 °C,NC(=O)CNC(=S)Nc1ccccc1
18,214 to 232 °C,CN1CN(C)c2nc3n(Cc4ccc(F)cc4)c(=O)cc(O)n3c2C1=O
19,55 to 59 °C,COc1ccc2c(c1)CCC(=O)C2CC(=O)c1ccccc1 (stereo not given)
20,145 to 155 °C,COC(=O)C1=C(C)NC(CC(=O)N2CCN(C3CC4CC(=O)CC4C3)CC2)=C(C(=O)OC)C1c1c(Cl)cccc1Cl (stereo not given)
21,160 °C,Cn1c(=O)n(Cc2ccc(F)cc2)c(=O)c2cc(C#CCc3ccccc3)ccc21
22,136 to 137 °C,Cc1oc(-c2ccccc2)nc1COc1ccc(Sc2nc(-c3ccccc3)c(CCC(=O)O)o2)cc1
23,98 to 100 °C,O=C(O)CC=C(c1ccccc1)c1ccc(F)cc1
24,133 to 134 °C,C=CCOC(=O)C1=C2c3ccccc3CC[C@@H]2[C@@H]2[C@@H]([C@@H](C)O)C(=O)N12

row,melting point,Structure (SMILES)
1,170 to 171 °C,Cc1c(C)c2c(c(C)c1NC(=O)CC(C)(C)C)C(O)(C1CCCCC1)C(C)(C)O2 (stereo not given)
2,243 to 251 °C,CNCCC1CN(c2c(F)cc3c(=O)c(C(=O)O)cn(C4CC4)c3c2F)CCO1 (stereo not given)
3,151 °C,COC(=O)c1cc(S(C)(=O)=O)c(Cl)cc1C
4,84.8 to 88.7 °C,CCc1nc2cnc3ccccc3c2n1CCCCN
5,130 to 132 °C,COC(=O)c1ccc(NC(C)=O)cc1OC
6,94 to 97 °C,CS(=O)(=O)Nc1ccc(CCN2CCN(C(=O)c3ccc4[nH]ccc4c3)CC2)cc1
7,167 to 168 °C,Clc1cccc(Nc2nccc(-c3ccncc3)n2)c1
8,180 to 184 °C,c1ccc(-c2nn3c(c2-c2cncc4cccnc24)CCC3)nc1
9,139 to 141 °C,CS(=O)(=O)N(Cc1ccc(C(F)(F)F)cc1)CC(O)(Cn1cncn1)c1ccc(Cl)cc1Cl (stereo not given)
10,55 °C,Cc1ccc(C(=S)OCSC#N)cc1
11,119 to 120 °C,C=CCOC1C(OC2C(COCc3ccccc3)OC(OC)C(OCc3ccccc3)C2OCc2ccccc2)OC(CO)C(O)C1OCc1ccccc1 (stereo not given)
12,110 to 112 °C,COc1ccc2c(c1)COc1c-2cc(-c2cccs2)c2cc(OC)ccc12
13,108 to 110 °C,OCCCc1cc(-c2ccc(Cl)cc2)n(-c2c(Cl)cncc2Cl)n1
14,252 °C,CC(C)(C)NS(=O)(=O)c1cnc(-c2cn(-c3cc(-c4ccc(C(F)(F)F)cc4)cc(C(F)(F)F)n3)cn2)s1
15,122 to 123 °C,CN1C(=O)NC(=O)C1(C)O (stereo not given)
16,123 to 125 °C,CNCC1Cc2cc(C(F)(F)F)cc(-c3cccc(F)c3F)c2O1 (stereo not given)
17,> 250 °C,CNC1Oc2cc(Cl)cc(-c3ccccc3Cl)c2O1 (stereo not given)
18,88 to 89 °C,COc1cc2c(cc1OC)CN(c1cc(Cl)ncn1)CC2
19,80 to 81.5 °C,COc1ccc(C=O)c(Br)c1O
20,198 to 202 °C,CC(=O)Nc1cccc(C(=O)Nc2cccc3cc(Br)cnc23)c1
21,150 to 151 °C,COc1cc2c(=O)c(Cc3cccnc3)cn3c4ccc(Br)cc4c(c1)c23
22,155 °C,Cc1ccc(S(=O)(=O)OCC2COc3ccc([N+](=O)[O-])c(N)c3O2)cc1 (stereo not given)
23,208 °C,Cc1noc2ncnc(NC3Cc4ccccc4C3)c12
24,84 to 85 °C,CCOC(=O)COc1ccc(C2C(C(=O)OCC)=C(C)N(C)C(C)=C2C(=O)OCC)cc1OC

row,melting point,Structure (SMILES)
1,171 to 173 °C,C=C(Oc1cc(-n2c(=O)cc(C(F)(F)F)[nH]c2=O)c(F)cc1Cl)C(=O)OC
2,143 to 146 °C,CCC(=O)OC1=C(c2nnc(-c3ccccc3)o2)N(C)S(=O)(=O)c2ccccc21
3,95 to 97 °C,COC(CC1OCC(Br)([N+](=O)[O-])CO1)OC (stereo not given)
4,233 to 236 °C,CCOC(=O)N1CCC(n2nnnc2CCC(C)Oc2ccc3nc4[nH]c(=O)[nH]c4cc3c2)CC1 (stereo not given)
5,188 to 192 °C,COC(=O)c1ccc(-c2ccc(NC(=O)c3ccc(OC)c(CCCN(C)C)c3)cc2)cc1
6,187 to 188 °C,COc1ccc(-c2cnc(C)[nH]c2=O)cc1OC
7,182 °C,Cc1cnc(COc2nn3c(-c4ccccc4)nnc3cc2-c2ccccc2)s1
8,140 to 141 °C,COc1cc(C=CC(=O)c2ccc(I)cc2O)cc(OC)c1OC
9,72 °C,O=C(O)c1cccc(OCCCCCCc2cccc(OCc3ccccc3)c2OCc2ccccc2)c1
10,48 °C,CC(C)(C)OC(=O)N1CC[C@H](O)[C@H](F)C1 (relative stereo)
11,109 to 111 °C,CC(C)CNC(=O)C(C)NC(=O)OCc1ccccc1 (stereo not given)
12,236 °C,O=C(Nc1cnccn1)Nc1cccc2c1C1CC3(CCN1C2=O)SCCS3 (stereo not given)
13,134 to 137 °C,CC(=NO)c1ccc2c(c1)N(C(=O)OC(C)(C)C)CCC2
14,104 to 105 °C,COC(=O)C(Cl)=Cc1cc(N)ccc1Cl
15,64 to 65 °C,COC(=O)C(=O)c1ccc(OCCCCSc2ccc3ccccc3c2)cc1
16,> 230 °C,COc1ccc(Cn2c(=O)n(C3OC(CO)C(O)C3O)c3nc(N)[nH]c(=O)c32)cc1 (stereo not given)
17,176 to 178 °C,N#Cc1ccc(Oc2ccccc2NC(=O)c2cccc([N+](=O)[O-])c2)cc1C#N
18,147 to 149 °C,O=C(OCc1ccccc1)c1ccc(O)c(O)c1
19,94 to 95 °C,O=C(c1ccc(Br)cc1)c1ncccc1O
20,177 to 178 °C,CC(C)[C@H](NC(=O)CN1CCN(CC(=O)O)C1=O)C(=O)N1CCC[C@H]1C(=O)N[C@H](C(=O)C(F)(F)F)C(C)C
21,143 to 144 °C,COc1cc(C(C)=O)ccc1OCCCN1CCC(=C(c2ccc(Cl)cc2)c2ccc(Cl)cc2)CC1
22,191 to 195 °C,COC(CCCNC(=O)C1CCC(C(=O)NCCCC(OC)OC)CC1)OC (stereo not given)
23,74.5 to 75 °C,ON=C(Cl)c1ccc(F)cc1
24,128 °C,CC1(C)Oc2ccc(C#N)cc2[C@@H](O)[C@@H]1Br (relative stereo)

row,melting point,Structure (SMILES)
1,225 to 227 °C,CSC1(SC)C(=O)CC2C3CCC4=CC(=O)C=CC4(C)C3(F)C(OC(C)=O)CC21C (stereo not given)
2,108 to 111 °C,CCCCCCCCCC[C@@H]1C(=O)OC(c2ccccc2)=C[C@@H]1C(=O)OC
3,150 to 151 °C,COC(=O)C1=C2CCC(c3ccccc3)CN2CCC1=O (stereo not given)
4,94 to 95 °C,OCCCc1cnoc1-c1ccc(-c2ccccc2)cc1
5,212 to 213 °C,C=CCSCC(N)C(=O)O (stereo not given)
6,152 °C,O=S1(=O)c2cccc3cccc(c23)N1CCN1CCC(CCn2ccc3ccccc32)CC1
7,128 to 131 °C,NS(=O)(=O)c1ccccc1Cn1cncn1
8,63 to 65 °C,CCCc1ccc(-c2ccn([C@H](CC(=O)OCc3ccccc3)C(=O)N[C@H](C(=O)NC)C(C)(C)C)c2)cc1
9,228 to 230 °C,Cc1nc(N)c2nc(C)n(CCCCNS(C)(=O)=O)c2c1C
10,87 to 89 °C,CCCCC(NC(=O)C(CC(C)C)NC(=O)COc1ccc2ccccc2c1)C(=O)CSCc1ccco1 (stereo not given)
11,123 to 124 °C,CC12CCC(=O)NC1=CCc1ccccc12 (stereo not given)
12,40 °C,CC(C)(C)OC(=O)NCCCBr
13,89 to 90 °C,COC(=O)[C@@H]1C[C@H](OC(=O)c2ccccc2)CN1C(=O)OC(C)(C)C
14,126 to 128 °C,COC(=O)Cc1coc(-c2cc(C(C)(C)C)c(O)c(C(C)(C)C)c2)n1
15,154 to 155 °C,CC(=O)Nc1ccc(C)c(NCCS(=O)(=O)F)c1
16,166 to 167 °C,CCc1cccc(C)c1CNc1nc(OC)cc(NC)c1[N+](=O)[O-]
17,100 to 105 °C,CC(COc1ccc(CC2SC(=O)NC2=O)cc1)NCC(O)c1cccc(C(F)(F)F)c1 (stereo not given)
18,148 to 149 °C,CC(=O)NCc1ccc(CN2CCN(c3ccccc3)CC2)cc1N
19,221 to 222 °C,O=C(Nc1nccs1)c1cccc(-c2ccc3c(c2)C(Nc2ccc(Cl)cc2Cl)CO3)c1 (stereo not given)
20,156 to 157 °C,Cc1ccc(-n2nc3c(c2O)-c2ccccc2CC3)nc1
21,142 to 144 °C,Cc1cccc(S(=O)(=O)n2cncn2)c1C#N
22,77 to 79 °C,CCOC(=O)C1(CS(=O)(=O)c2ccc(OC)cc2)CO1 (stereo not given)

row,Structure (SMILES),melting point
1,CCCN(CCC)C1Cc2cccc3c2N(C1)C(=O)NC3 (stereo not given),116 to 119 °C
2,COc1ccc2c(c1)CCN1CCC(Nc3ccc(NC(C)=O)cc3)CC21 (stereo not given),219 to 221 °C
3,CCOC(=O)NNC1=Nc2sc(CC)cc2C(c2ccccc2Cl)=NC1,207 °C
4,CCc1cc(C(=O)c2ccccc2Cl)c(-n2c(C)nnc2CNC(=O)c2ccccc2)s1,160 to 161 °C
5,CN1C(=O)C(NC(=O)c2cc3cc(O)ccc3[nH]2)N=C(c2ccccc2)c2ccccc21 (stereo not given),120 to 130 °C
6,Clc1ccc(I)c(CBr)c1,75 to 79 °C
